The results in this text go back to patent US12686665B2, “Bicyclic fused ring derivative or salt thereof and pharmaceutical composition comprising same” (YUHAN CORPORATION, priority 2021, dated 2026).

Common to all, as to format: biochemical
In assay [1] the target is T1, recombinant human MAO-A (monoamine oxidase-A) (Homo sapiens, UniProt P21397).
T1 construct: purchased Sigma-Aldrich
T1 sequence (P21397 1-527): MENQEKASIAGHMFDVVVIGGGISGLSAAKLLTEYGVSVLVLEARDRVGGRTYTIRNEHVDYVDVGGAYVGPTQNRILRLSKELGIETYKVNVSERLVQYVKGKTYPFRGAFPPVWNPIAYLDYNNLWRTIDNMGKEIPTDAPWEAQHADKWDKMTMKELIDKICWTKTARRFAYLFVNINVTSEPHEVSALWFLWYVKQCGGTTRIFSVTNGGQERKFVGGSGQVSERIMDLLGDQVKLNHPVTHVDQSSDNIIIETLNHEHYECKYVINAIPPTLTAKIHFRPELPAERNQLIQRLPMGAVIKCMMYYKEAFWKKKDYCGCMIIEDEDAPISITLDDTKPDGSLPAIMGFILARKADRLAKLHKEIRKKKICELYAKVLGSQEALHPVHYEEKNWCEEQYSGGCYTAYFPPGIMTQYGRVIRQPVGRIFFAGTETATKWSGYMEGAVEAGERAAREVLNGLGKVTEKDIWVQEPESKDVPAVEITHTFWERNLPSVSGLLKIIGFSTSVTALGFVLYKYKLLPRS
Put plainly: Amplex Red HRP-coupled amine oxidase assay, recombinant human MAO-A. The settings on record: 0.5 mM tyramine substrate, read-out: Inhibitory activity (IC50, nM) MAO-A. The protocol: The activities of the compounds according to the present invention against recombinant human Lysyl Oxidase-Like 2 (recombinant human LOXL2, R&D systems) were evaluated by measuring the levels of hydrogen peroxide in the HRP (horseradish peroxidase) coupled reactions, with the Amplex Red Hydrogen Peroxide Assay Kit (Molecular Probes, Invitrogen, USA). The tests were carried out at 37° C., and putrescine was used as a substrate. In the HRP coupling reaction, the oxidation of 10-acetyl-3,7-dihydroxyphenoxazine (Amplex Red reagent) by hydrogen peroxide generates a fluorescent product, i.e., resorufin. Briefly, the test compounds were dissolved in dimethyl sulfoxide (DMSO) at a concentration of 20 mM. Dose-response measurements were carried out by serial dilutions in DMSO to generate a six-point curve. The upper concentration was adjusted according to the potency of the compound, and then diluted with the reaction buffer to obtain a final DMSO concentration of 1%. Purified human LOXL2 in 50 mM sodium phosphate buffer (pH7.4) was added to each well of a 96 well black plate. The test compounds dissolved in DMSO were incubated with the human LOXL2 enzyme at 37° C. for 60 minutes. After the incubation for 60 minutes, a reaction mixture containing 400 μM Amplex Red reagent, 30 mM putrescine, and 2 U/mL HRP in 50 mM sodium phosphate buffer (pH 7.4) was added to each well. Fluorescence was measured with a microplate reader (Flexstation3, Molecular Devices), under the conditions of excitation at 530 nm and emission at 590 nm, 1 hour after the addition of the mixture. Inhibition by each compound was measured as % reduction in signal, compared to the control without an inhibitor (diluted DMSO only). The data were fixed to a four-variable logistic model, and […] values were calculated using the GraphPad Prism program.
And, the activities of the compounds according to the present invention against recombinant human MAO-A (monoamine oxidase-A, Sigma-Aldrich) and recombinant human MAO-B (monoamine oxidase-B, Sigma-Aldrich) were evaluated in a similar manner to the activity evaluation method for recombinant human LOXL2, using 0.5 mM tyramine and 1 mM benzylamine as a substrate, respectively. In addition, the activities of the compounds according to the present invention against recombinant human DAO (diamine oxidase, R&D systems) were evaluated in a similar manner to the activity evaluation method for recombinant human LOXL2, using 1 mM putrescine as a substrate.

In assay [2] the target is T2, recombinant human MAO-B (monoamine oxidase-B) (Homo sapiens, UniProt P27338).
T2 construct: purchased Sigma-Aldrich
T2 sequence (P27338 1-520): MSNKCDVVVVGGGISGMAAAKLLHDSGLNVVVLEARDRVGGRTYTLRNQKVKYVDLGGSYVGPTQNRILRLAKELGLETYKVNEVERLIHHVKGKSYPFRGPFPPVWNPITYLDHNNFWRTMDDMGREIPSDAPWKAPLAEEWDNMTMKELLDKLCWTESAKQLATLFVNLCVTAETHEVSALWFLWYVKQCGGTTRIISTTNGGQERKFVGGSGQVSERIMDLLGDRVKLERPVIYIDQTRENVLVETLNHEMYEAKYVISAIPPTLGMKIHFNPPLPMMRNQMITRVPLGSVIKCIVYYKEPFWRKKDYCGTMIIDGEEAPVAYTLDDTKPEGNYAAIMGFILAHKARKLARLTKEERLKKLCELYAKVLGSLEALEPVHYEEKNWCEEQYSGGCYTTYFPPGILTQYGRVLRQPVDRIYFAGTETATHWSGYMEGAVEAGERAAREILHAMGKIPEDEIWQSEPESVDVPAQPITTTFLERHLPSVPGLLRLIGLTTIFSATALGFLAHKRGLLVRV
In words: Amplex Red HRP-coupled amine oxidase assay, recombinant human MAO-B. The settings on record: 1 mM benzylamine substrate, read-out: Inhibitory activity (IC50, nM) MAO-B. Summed up:
(§1)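 Enzyme preincubated 60 min at 37 °C with compound (six-point curve, 1% DMSO final) in 50 mM sodium phosphate pH 7.4, then Amplex Red 400 μM and HRP 2 U/mL added with substrate: MAO-A 0.5 mM tyramine, MAO-B 1 mM benzylamine, DAO 1 mM putrescine. Resorufin fluorescence read after 1 h; IC50 by four-parameter logistic fit.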

For assay [3], the target named is T3, recombinant human Lysyl Oxidase-Like 2 (LOXL2) (Homo sapiens, UniProt Q9Y4K0).
T3 construct: purchased R&D systems
T3 sequence (Q9Y4K0 26-774): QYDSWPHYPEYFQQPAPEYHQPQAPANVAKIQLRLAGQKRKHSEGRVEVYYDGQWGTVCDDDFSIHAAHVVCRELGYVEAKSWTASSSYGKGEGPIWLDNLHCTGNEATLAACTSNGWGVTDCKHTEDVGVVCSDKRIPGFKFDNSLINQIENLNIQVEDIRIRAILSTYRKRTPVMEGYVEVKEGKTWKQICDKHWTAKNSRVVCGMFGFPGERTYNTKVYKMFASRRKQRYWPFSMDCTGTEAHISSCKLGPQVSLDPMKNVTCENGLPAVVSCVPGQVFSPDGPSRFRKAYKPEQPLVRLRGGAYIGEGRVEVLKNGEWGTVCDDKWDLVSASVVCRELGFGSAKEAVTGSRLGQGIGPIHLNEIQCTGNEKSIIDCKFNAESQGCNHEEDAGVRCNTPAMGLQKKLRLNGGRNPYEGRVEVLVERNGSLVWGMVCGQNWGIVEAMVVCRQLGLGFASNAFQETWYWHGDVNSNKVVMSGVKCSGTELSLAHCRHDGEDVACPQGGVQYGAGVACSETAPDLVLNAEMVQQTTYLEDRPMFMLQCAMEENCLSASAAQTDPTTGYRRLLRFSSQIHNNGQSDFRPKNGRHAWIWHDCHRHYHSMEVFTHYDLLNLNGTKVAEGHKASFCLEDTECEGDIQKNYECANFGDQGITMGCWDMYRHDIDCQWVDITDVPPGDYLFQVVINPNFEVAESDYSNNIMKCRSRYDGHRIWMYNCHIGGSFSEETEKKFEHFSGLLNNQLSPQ
In words: Amplex Red HRP-coupled amine oxidase assay, recombinant human LOXL2. The settings on record: 60 min incubation with enzyme at 37° C., putrescine substrate, read-out: Inhibitory activity (IC50, nM) human LOXL2. Summed up:
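Putrescine substrate (30 mM) in 50 mM sodium phosphate pH 7.4, 37 °C; compounds preincubated 60 min with enzyme, 1% DMSO final, six-point curves. H2O2 detected via 400 μM Amplex Red/2 U/mL HRP, fluorescence (ex 530/em 590 nm) after 1 h; IC50 from four-parameter logistic fit of % signal reduction.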

For assay [4], the target named is T4, recombinant human DAO (diamine oxidase) (Homo sapiens, UniProt P19801).
T4 construct: purchased R&D systems
T4 sequence (P19801 20-751): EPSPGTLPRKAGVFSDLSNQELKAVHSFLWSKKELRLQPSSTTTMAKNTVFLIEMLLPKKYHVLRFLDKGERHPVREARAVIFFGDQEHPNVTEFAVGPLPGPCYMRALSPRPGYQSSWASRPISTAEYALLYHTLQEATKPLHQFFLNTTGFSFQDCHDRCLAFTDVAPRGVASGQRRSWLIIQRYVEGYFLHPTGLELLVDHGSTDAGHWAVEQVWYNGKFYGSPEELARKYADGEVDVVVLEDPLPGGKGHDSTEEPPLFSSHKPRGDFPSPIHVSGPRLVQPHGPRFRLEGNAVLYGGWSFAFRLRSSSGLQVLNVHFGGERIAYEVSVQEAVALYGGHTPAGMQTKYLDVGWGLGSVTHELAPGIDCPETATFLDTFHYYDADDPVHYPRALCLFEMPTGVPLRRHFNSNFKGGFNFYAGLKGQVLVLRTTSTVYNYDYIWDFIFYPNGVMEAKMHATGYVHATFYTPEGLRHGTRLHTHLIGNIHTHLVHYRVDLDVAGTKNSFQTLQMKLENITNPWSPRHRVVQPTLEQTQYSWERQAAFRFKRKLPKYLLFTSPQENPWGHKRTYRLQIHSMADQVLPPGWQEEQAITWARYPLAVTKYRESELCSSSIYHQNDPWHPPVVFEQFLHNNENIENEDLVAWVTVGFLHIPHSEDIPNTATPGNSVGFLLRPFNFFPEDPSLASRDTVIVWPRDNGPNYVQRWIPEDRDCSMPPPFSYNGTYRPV
Put plainly: Amplex Red HRP-coupled amine oxidase assay, recombinant human DAO. The note with it: 1 mM putrescine substrate, read-out: Inhibitory activity (IC50, nM) DAO. Summed up: as §1

Structures can show the parent of a compound that is named as a salt.

By IC50 is commonly meant the concentration needed to halve the response being measured. Consider `CNS(=O)(=O)c1cccc(-c2cc(C(=O)OC)cc3c2ncn3C/C(F)=C/CN)c1` [Example 30, methyl (Z)-1-(4-amino-2-fluorobut-2-en-1-yl)-4-(3-(N-methylsulfamoyl)phenyl)-1H-benzo[d]imidazol-6-carboxylate hydrochloride], for which the IC50 in assay [1] is above 100000 nM; in assay [2], above 100000 nM; in assay [3], 29.7 nM; in assay [4], 3460 nM.
For the compound `COC(=O)c1cc(-c2cccc(S(=O)(=O)N(C)C)c2)c2ncn(C/C(F)=C/CN)c2c1` [Example 31, methyl (Z)-1-(4-amino-2-fluorobut-2-en-1-yl)-4-(3-(N,N-dimethysulfamoyl)phenyl)-1H-benzo[d]imidazol-6-carboxylate hydrochloride], the half-maximal inhibitory concentration (IC50) in assay [1] is 24600 nM; in assay [2], above 100000 nM; in assay [3], 19.4 nM; in assay [4], 139 nM.
The like results for `CCS(=O)(=O)c1cccc(-c2cc(C(=O)OC)cc3c2ncn3C/C(F)=C/CN)c1` [Example 34, methyl (Z)-1-(4-amino-2-fluorobut-2-en-1-yl)-4-(3-(ethylsulfonyl)phenyl)-1H-benzo[d]imidazol-6-carboxylate hydrochloride] were, in that order, above 100000 nM, above 100000 nM, 37.6 nM and 495 nM.
For `COC(=O)c1cc(-c2cc(S(=O)(=O)C(F)(F)F)ccc2C)c2ncn(C/C(F)=C/CN)c2c1` [Example 35, methyl (Z)-1-(4-amino-2-fluorobut-2-en-1-yl)-4-(2-methyl-5-((trifluoromethyl)sulfonyl)phenyl)-1H-benzo[d]imidazol-6-carboxylate hydrochloride] the same measures were above 100000 nM, above 100000 nM, 67.6 nM and 47700 nM.
For `COC(=O)c1cc(-c2cccc(P(C)(C)=O)c2)c2ncn(C/C(F)=C/CN)c2c1` [Example 38, methyl (Z)-1-(4-amino-2-fluorobut-2-en-1-yl)-4-(3-(dimethylphosphoryl)phenyl)-1H-benzo[d]imidazol-6-carboxylate hydrochloride] the same measures were above 100000 nM, above 100000 nM, 82.3 nM and 44500 nM.
With `CNS(=O)(=O)c1cccc(-c2cccc3c2nc(C(F)(F)F)n3C/C(F)=C/CN)c1` [Example 53, (Z)-3-(1-(4-amino-2-fluorobut-2-en-1-yl)-2-(trifluoromethyl)-1H-benzo[d]imidazol-4-yl)-N-methylbenzenesulfonamide hydrochloride], the IC50 was above 100000 nM in assay [1], above 100000 nM in assay [2], 68 nM in assay [3] and above 100000 nM in assay [4].
For the compound `Cc1nc2c(-c3cccc(S(=O)(=O)N(C)C)c3)cccc2n1C/C(F)=C/CN` [Example 56, (Z)-3-(1-(4-amino-2-fluorobut-2-en-1-yl)-2-methyl-1H-benzo[d]imidazol-4-yl)-N,N-dimeth ylbenzenesulfonamide hydrochloride], the IC50 is 6540 nM in assay [1], above 100000 nM in assay [2], 74 nM in assay [3] and 227 nM in assay [4].
For `Cc1nc2c(-c3cccc(S(=O)(=O)N4CCCC4)c3)cccc2n1C/C(F)=C/CN` [Example 60, (Z)-3-fluoro-4-(2-methyl-4-(3-(pyrrolidin-1-ylsulfonyl)phenyl)-1H-benzo[d]imidazol-1-yl)but-2-en-1-amine hydrochloride] the same measures were 64200 nM, above 100000 nM, 92 nM and 636 nM.
